Reference: patent US6603023B2 (priority 1996, dated 2003)
“And” between values parts separate entries of the source, which are not always exact repeats. Equal values may be shown once. Where a name gives a salt, the structure may show the parent alone. Read-outs that look alike come from different tables or passages of the source.

Assays:
DC-3F/ADX = assay: cells; type: cell-based, hamster; conditions: DC3F/ADX, Table 3
Outline: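 Hamster lung fibroblast DC-3F sublines selected with actinomycin D (ADII moderate, ADX very strong MDR), maintained under selecting agent in RPMI 1640-10% FBS at 37° C. Monolayers exposed to six to seven drug concentrations in duplicate, TCA-fixed, stained with 0.4% SRB; absorbance 570 nm, analyzed by median-effect plot.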

[1] = test system: human mammary carcinoma MX-1 xenograft; conditions: for Average Body Weight, Day 7: initial weight, first treatment day; for Note: died (mice died/total): male, athymic nude (nu/nu)
Description: DMSO was used as a vehicle for epothilones. Each mouse received ≦40 μL DMSO in all experiments.
Athymic nude mice (nu/nu) were used for MX-1 and MCF-7/Adr human mammary carcinoma xenografts. Mice were obtained from Taconic Laboratory Animals and Service (Germantown, N.Y.: outbred, Swiss background).

[2] = high doses: dEpoB 25, EpoB 0.6, Taxol 10, Vinblastine 0.4 mg/kg i.p. Q2D from day 7
[3] = low doses: dEpoB 15, EpoB 0.3, Taxol 5, Vinblastine 0.2 mg/kg i.p. Q2D day 7-15

For CC[C@]1(O)C[C@@H]2CN(CCc3c([nH]c4ccccc34)[C@@](C(=O)OC)(c3cc4c(cc3OC)N(C)[C@H]3[C@@](O)(C(=O)OC)[C@H](OC(C)=O)[C@]5(CC)C=CCN6CC[C@]43[C@@H]65)C2)C1 [Vinblastine, Vinblastine sulfate], the IC50 (DC-3F/ADX) was 1070 nM, the “Average Body Weight Change” value ([1]; 0.2 mg/kg i.p. Q2Dx5 from day 7, day 11) was “+0.6 g” and the “Average Body Weight Change” value ([1]; 0.2 mg/kg i.p. Q2Dx5 from day 7, day 13) was “+1.4 g”. The “Average Body Weight Change” value ([1]; 0.2 mg/kg i.p. Q2Dx5 from day 7, day 15) was “+2.3 g”, the “Average Body Weight Change” value ([1]; 0.2 mg/kg i.p. Q2Dx5 from day 7, day 17) was “+2.9 g” and the “Average Body Weight Change” value ([1]; 0.4 mg/kg i.p. Q2Dx5 from day 7, day 11) was “+0.8 g”. The “Average Body Weight Change” value ([1]; 0.4 mg/kg i.p. Q2Dx5 from day 7, day 13) was “+0.5 g”, the “Average Body Weight Change” value ([1]; 0.4 mg/kg i.p. Q2Dx5 from day 7, day 15) was “+1.9 g” and the “Average Body Weight Change” value ([1]; 0.4 mg/kg i.p. Q2Dx5 from day 7, day 17) was “+2.1 g”. For the same compound, the “Average Tumor Volume (T/C), Day 11” value [1, 2] was 0.80 T/C, the “Average Tumor Volume (T/C), Day 13” value [1, 2] was 0.56 T/C and the “Average Tumor Volume (T/C), Day 15” value [1, 2] was 0.83 T/C. The “Average Tumor Volume (T/C), Day 17” value [1, 2] was 0.88 T/C, the “Average Body Weight, Day 7” value [1, 2] was 26.4 g and the “Average Body Weight, Day 7” value [1, 3] was 25.7 g. For the same compound, the “Average Tumor Volume (T/C), Day 11” value [1, 3] was 0.65 T/C, the “Average Tumor Volume (T/C), Day 13” value [1, 3] was 0.54 T/C and the “Average Tumor Volume (T/C), Day 15” value [1, 3] was 0.56 T/C. The “Average Tumor Volume (T/C), Day 17” value [1, 3] was 0.88 T/C, the “Note: died (mice died/total)” value ([1]; mouse, in vivo) was 0/7 died and the “Note: died (mice died/total)” value ([1]; outbred, Swiss background, mouse, in vivo) was 1/7 died. The “Average Tumor Size (T/C)” value ([1]; mouse, in vivo) was 0.88 and 0.65 and 0.54 and 0.56 and 0.80 and 0.83.
